Measured values reported in ChEMBL document CHEMBL1201862, “PubChem BioAssay data set” (2004).
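Where inhibition never reached the appropriate level, the endpoint shown equals the highest concentration tested. Otherwise, values were interpolated linearly from a five-concentration, 48-hour dose response in 96-well plates. GI50 is the concentration that inhibits growth by half.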 Calls of active or inactive are those of the source. Rule as the data show it: active = GI50 up to about 1.1 µM and inactive = higher. Residues, ends and D or L forms follow the SMILES beside them. *: point of attachment. OBn = c1ccc(CO*)cc1

Columns and labels:
Test in all cases: NCI-60 cell line screen, 48 h
MDA-N = tested on: MDA-N
OVCAR-3 = tested on: OVCAR-3
NCI-H522 = tested on: NCI-H522
SNB-19 = tested on: SNB-19
UACC-62 = tested on: UACC-62
SK-MEL-5 = tested on: SK-MEL-5
TK-10 = tested on: TK-10
PC-3 = tested on: PC-3
HOP-62 = tested on: HOP-62
EKVX = tested on: EKVX
IGROV-1 = tested on: IGROV-1
MDA-MB-435 = tested on: MDA-MB-435
NCI-H23 = tested on: NCI-H23
UO-31 = tested on: UO-31
M14 = tested on: M14
HOP-92 = tested on: HOP-92
COLO 205 = tested on: COLO 205
SF-268 = tested on: SF-268
HT-29 = tested on: HT-29
NCI-H460 = tested on: NCI-H460

Measured: GI50

C/C(=N/CC(=O)O)c1ccccc1
inactive: MDA-N > 100 µM | OVCAR-3 > 100 µM | NCI-H522 34.8 µM | SNB-19 > 100 µM | UACC-62 > 100 µM | SK-MEL-5 89.5 µM | TK-10 > 100 µM | PC-3 > 100 µM | HOP-62 > 100 µM | EKVX > 100 µM | IGROV-1 > 100 µM | MDA-MB-435 > 100 µM | NCI-H23 92.5 µM | UO-31 97.5 µM | M14 > 100 µM | HOP-92 > 100 µM | COLO 205 > 100 µM | SF-268 > 100 µM | HT-29 > 100 µM | NCI-H460 > 100 µM

Cc1cc(=O)n2nc(CN3CCCCC3)sc2n1
inactive: MDA-N > 100 µM | OVCAR-3 > 100 µM | NCI-H522 > 100 µM | SNB-19 > 100 µM | UACC-62 > 100 µM | SK-MEL-5 > 100 µM | TK-10 > 100 µM | PC-3 > 100 µM | HOP-62 > 100 µM | EKVX > 100 µM | IGROV-1 > 100 µM | MDA-MB-435 > 100 µM | NCI-H23 > 100 µM | UO-31 > 100 µM | M14 > 100 µM | HOP-92 > 100 µM | COLO 205 > 100 µM | SF-268 > 100 µM | HT-29 > 100 µM | NCI-H460 > 100 µM

Cc1ccc(O)c(C2=NNC(c3cccc(Cl)c3)C2)c1 (stereo not given)
inactive: MDA-N 28.3 µM | OVCAR-3 51.5 µM | NCI-H522 16 µM | SNB-19 14.4 µM | UACC-62 39.7 µM | SK-MEL-5 54 µM | TK-10 58.3 µM | PC-3 32.3 µM | HOP-62 79.8 µM | EKVX 37 µM | IGROV-1 5.69 µM | MDA-MB-435 19 µM | NCI-H23 50.1 µM | UO-31 28.1 µM | M14 87.5 µM | HOP-92 18.5 µM | COLO 205 > 100 µM | SF-268 32.9 µM | HT-29 54.8 µM | NCI-H460 19.6 µM

CC1(C)C(C(=O)OC(C#N)c2cccc(OCC(=O)OCc3ccccc3)c2)C1(C)C (stereo not given)
inactive: MDA-N > 100 µM | OVCAR-3 > 100 µM | NCI-H522 > 100 µM | SNB-19 > 100 µM | UACC-62 > 100 µM | SK-MEL-5 > 100 µM | TK-10 > 100 µM | PC-3 > 100 µM | HOP-62 > 100 µM | EKVX > 100 µM | IGROV-1 > 100 µM | MDA-MB-435 > 100 µM | NCI-H23 37.4 µM | UO-31 > 100 µM | M14 48.6 µM | HOP-92 > 100 µM | COLO 205 > 100 µM | SF-268 > 100 µM | HT-29 > 100 µM | NCI-H460 > 100 µM

Cc1cc(=O)oc2cc(OC(=O)Nc3ccccc3)ccc12
inactive: MDA-N > 100 µM | OVCAR-3 61 µM | NCI-H522 53.1 µM | SNB-19 > 100 µM | UACC-62 41.2 µM | SK-MEL-5 59 µM | TK-10 > 100 µM | PC-3 48.8 µM | HOP-62 > 100 µM | EKVX > 100 µM | IGROV-1 69.8 µM | MDA-MB-435 > 100 µM | NCI-H23 69.5 µM | UO-31 40.4 µM | M14 > 100 µM | HOP-92 29.3 µM | COLO 205 53.5 µM | SF-268 > 100 µM | HT-29 > 100 µM | NCI-H460 84.7 µM

NC(CCC(=O)OCc1ccccc1)C(=O)NC(CCC(=O)OCc1ccccc1)C(=O)O (stereo not given) (H-Glu(OBn)-Glu(OBn)-OH; configuration not given here)
inactive: MDA-N > 100 µM | OVCAR-3 > 100 µM | NCI-H522 > 100 µM | SNB-19 > 100 µM | UACC-62 > 100 µM | SK-MEL-5 > 100 µM | TK-10 > 100 µM | PC-3 > 100 µM | HOP-62 > 100 µM | EKVX > 100 µM | IGROV-1 > 100 µM | MDA-MB-435 > 100 µM | NCI-H23 > 100 µM | UO-31 > 100 µM | M14 > 100 µM | HOP-92 > 100 µM | COLO 205 > 100 µM | SF-268 > 100 µM | HT-29 > 100 µM | NCI-H460 > 100 µM
